The record followed here is ChEMBL document CHEMBL4043102, “Novel 4-acetamide-2-alkylthio-N-acetanilides resembling nimesulide: Synthesis, cell viability evaluation and in silico studies” (Bioorg Med Chem, 2017).

The test system of data set [1] is MCF7. Nature of the data set: Antiproliferative activity against human MCF7 cells assessed as cell proliferation at 30 uM after 48 hrs by MTT assay relative to control. It is filed as functional. The conditions noted are these: MCF7, 48 h, read-out: Activity. Background: Tetrazolium dyes change colour on reduction, which living cells bring about.
The subject of data set [2] is LNCaP. Nature of the data set: Antiproliferative activity against human LNCAP cells assessed as cell proliferation at 30 uM after 48 hrs by MTT assay relative to control. It is filed as functional. The conditions noted are these: read-out: Activity.
The subject of data set [3] is MCF7. Nature of the data set: Antiproliferative activity against human MCF7 cells after 48 hrs by MTT assay. The class given is functional, cell-based. The conditions noted are these: MCF7, 48 h.
Data set [4] can be described thus: Antiproliferative activity against NHDF assessed as cell proliferation at 30 uM after 48 hrs by MTT assay relative to control. It is filed as cell-based. The conditions noted are these: human, NHDF cells; read-out: Activity.
Data set [5] concerns LNCaP. The data set can be described thus: Antiproliferative activity against human LNCAP cells after 48 hrs by MTT assay. It is filed as functional, cell-based.
Data set [6] relates to MCF7. Nature of the data set: Induction of apoptosis in human MCF7 cells assessed as reduction in viable cells at 30 uM after 24 hrs by propidium iodide staining based FACS analysis. The class given is functional, cell-based.
Data set [7] relates to MCF7. The data set can be described thus: Induction of morphological changes in human MCF7 cells assessed as cell rounding at 30 uM after 24 hrs by propidium iodide staining-based microscopic analysis. The class given is functional.
For data set [8], the system named is MCF7. The data set can be described thus: Induction of apoptosis in human MCF7 cells assessed as reduction in viable cells at 30 uM after 24 hrs by propidium iodide staining-based microscopic analysis. It is filed as functional, cell-based.
In data set [9] the test system is LNCaP. The data set can be described thus: Antiproliferative activity against human LNCAP cells assessed as cell proliferation at 1 mM after 48 hrs by MTT assay relative to control. The conditions noted are these: read-out: Activity.
For data set [10], the system named is MCF7. Nature of the data set: Antiproliferative activity against human MCF7 cells assessed as cell proliferation at 1 mM after 48 hrs by MTT assay relative to control. The conditions noted are these: MCF7, 48 h, read-out: Activity.
Data set [11] in a line: Antiproliferative activity against NHDF assessed as cell proliferation at 1 mM after 48 hrs by MTT assay relative to control. Conditions: human, NHDF cells.

The source made the active and inactive calls. No cut-off for these calls is given here.

`CC(=O)N(Cc1ccccc1)c1ccccc1SCc1ccccc1`: the growth at 30 µM in data set [1] was 79.8%.

`CCOc1ccccc1N(CC)C(C)=O`: the growth at 30 µM in data set [1] was 93.5%.

The IC50 is the concentration that inhibits the measured activity by half. As for `CC(=O)Nc1ccc(N(Cc2ccc(C)cc2C)C(C)=O)c(SCC2CCCCC2)c1`, the growth at 30 µM was 40.4% in [2] and 13.6% in data set [1]. For the same compound, inhibition in [3] was half-maximal at 25.2 µM (IC50). Moreover, in data set [4], the viability at 48 h, 30 µM was 80.5%.

`CCCCCCOc1ccccc1N(CC)C(C)=O`: the growth at 30 µM in data set [1] was found to be 55.5%.

With `CCCCCCN(C(C)=O)c1ccccc1SCCC`, the growth at 30 µM in data set [1] was 47.6%.

In the case of `CC(=O)N(Cc1ccccc1C)c1ccccc1SCc1ccccc1C`, the growth at 30 µM in [1] was determined as 13.7%.

For `CCCCCCN(C(C)=O)c1ccc(NC(C)=O)cc1SCC1CCCCC1`, the growth at 30 µM in [2] came out at 117%; in data set [1], 35.9%. In data set [3], this compound displayed an IC50 of 20.4 µM. The viability at 48 h, 30 µM in [4] amounted to 98.2%.

Regarding `CCN(C(C)=O)c1ccccc1OCc1ccccc1`, the growth at 30 µM in data set [1] was determined as 88.8%.

In the case of `CCSc1ccccc1N(Cc1ccccc1)C(C)=O`, the growth at 30 µM in data set [1] stood at 89.4%.

On to `CCCCCCSc1cc([N+](=O)[O-])ccc1N(CCCCCC)C(C)=O`, for which the growth at 30 µM in data set [2] worked out at 92.3%; in data set [1] it was 65.9%. Besides, the viability at 48 h, 30 µM in data set [4] worked out at 111%.

In the case of `CCCCCCN(C(C)=O)c1ccc(NC(C)=O)cc1SCc1ccc(C)cc1C`, the growth at 30 µM in data set [2] was found to be 88.5%; in data set [1], 11.1%. In data set [3], this compound returned an IC50 of 20.7 µM. Moreover, the viability at 48 h, 30 µM in data set [4] was 83%.

For the compound `CC(=O)Nc1ccc(N(CC2CCCCC2)C(C)=O)c(SCC2CCCCC2)c1`, the results for the growth at 30 µM in data set [2] and in data set [1] were 29.7% and 7.52%, respectively. Further, the values for the concentration for half-maximal inhibition (IC50) in data set [3] and in [5] were 16.6 µM and 9.16 µM, respectively. Moreover, the viability at 48 h, 30 µM in data set [4] came to 86.2%. The result in data set [6] and in [7] was Active.

Consider `CCCOc1ccccc1N(CC)C(C)=O`, for which the growth at 30 µM in data set [1] came out at 92.5%.

For `CCSc1ccccc1N(Cc1ccccc1C)C(C)=O`, the growth at 30 µM in [1] was found to be 77%.

Regarding `CCN(C(C)=O)c1ccccc1SCc1ccccc1`, the growth at 30 µM in data set [1] was determined as 95.3%.

Regarding `CCN(CC)c1ccccc1SC`, the growth at 30 µM in data set [1] turned out to be 97.2%.

In the case of `O=c1[nH]cc(F)c(=O)[nH]1` [FLUOROURACIL], the growth at 30 µM in [2] was determined as 58.8%; in [1] it was 28.3%. Moreover, the half-inhibitory concentration (IC50) in [3] was found to be 3.18 µM; in data set [5], 5.21 µM. Further, the viability at 48 h, 30 µM in data set [4] was 86.8%. Moreover, the outcome in data set [8] and in [6] was Active.

Turning to `CCOc1ccccc1N(Cc1ccccc1)C(C)=O`, in data set [1], the growth at 30 µM is 87.6%.

On to `CCCCCCSc1ccccc1N(CC)C(C)=O`, for which, in [1], the growth at 30 µM amounted to 67.7%.

For the compound `CCCCCCN(C(C)=O)c1ccccc1OCCC`, the growth at 30 µM in data set [1] worked out at 51.5%.

As to `OO` [HYDROGEN PEROXIDE], the growth at 1000 µM amounted to 2.15% in [9] and 4.44% in data set [10]. In addition, the viability at 48 h, 1000 µM in data set [11] came to 15.5%.

On to `CCSc1ccccc1N(CC)CC`, for which the growth at 30 µM in data set [1] came to 99.7%.

In the case of `CCCSc1ccccc1N(CC)C(C)=O`, in data set [1], the growth at 30 µM worked out at 89.1%.

For `CCCN(C(C)=O)c1ccccc1SC`, the growth at 30 µM in [1] is 95.3%.

For `CCCCCCSc1cc(NC(C)=O)ccc1N(CCCCCC)C(C)=O`, the growth at 30 µM came out at 73.9% in data set [2] and 36.6% in data set [1]. The same compound registered a 50% inhibitory concentration (IC50) in [3] of 24.9 µM. Also, the viability at 48 h, 30 µM in [4] came out at 93.6%.

In the case of `CS(=O)(=O)Nc1ccc([N+](=O)[O-])cc1Oc1ccccc1` [NIMESULIDE], the growth at 30 µM in data set [2] was 73.8%; in data set [1] it was 42.5%. In addition, the concentration for half-maximal inhibition (IC50) in data set [3] is greater than 100 µM; in [5], 26.7 µM. Moreover, the viability at 48 h, 30 µM in data set [4] was found to be 89.3%. In addition, the outcome in data set [8] and in data set [6] was Active.

Turning to `CC(=O)Nc1ccc(N(Cc2ccc(C)cc2C)C(C)=O)c(SCc2ccc(C)cc2C)c1`, the growth at 30 µM worked out at 48% in [2] and 15.3% in [1]. Moreover, the IC50 in data set [3] turned out to be 7.33 µM. For the same compound, the viability at 48 h, 30 µM in [4] was 89.9%.

Turning to `CCCCCCSc1cc(NC(C)=O)ccc1N(Cc1ccc(C)cc1C)C(C)=O`, the growth at 30 µM was 19.1% in data set [2] and 6.86% in data set [1]. In addition, the 50% inhibitory concentration (IC50) in data set [3] is 21.6 µM; in [5] it was 13.9 µM. Moreover, the viability at 48 h, 30 µM in [4] worked out at 80.1%. Also, the outcome in data set [6] and in data set [7] was Active.

On to `CCSc1ccccc1N(CC)C(C)=O`, for which, in [1], the growth at 30 µM was determined as 99.5%.

On to `CC(=O)Nc1ccc(N(CC2CCCCC2)C(C)=O)c(SCc2ccc(C)cc2C)c1`, for which the growth at 30 µM in data set [2] came to 23%; in [1] it was 9.08%. Further, the IC50 in data set [3] stood at 20.8 µM; in data set [5], 9.71 µM. In data set [4], the viability at 48 h, 30 µM came to 79.7%.

For `CCCCCCSc1cc(NC(C)=O)ccc1N(CC1CCCCC1)C(C)=O`, the growth at 30 µM was determined as 49.8% in data set [2] and 24.2% in data set [1]. Besides, the concentration for half-maximal inhibition (IC50) in data set [3] is 21 µM. Also, the viability at 48 h, 30 µM in data set [4] was found to be 82.8%.
